{"source": "patent US9907853B2", "about": "“Approach to treatment of hyperglycemia using a nanoparticle encapsulated peptide” (University of Rochester, priority 2016, dated 2018)", "key": {"[1]": {"target": "T1, IRK (Homo sapiens, UniProt P06213)", "conditions": "cited from earlier work"}, "[2]": {"system": "Akt1", "test": "Akt kinase activity immunoprecipitated from HEK cells, Crosstide substrate", "type": "cell-based", "conditions": "genistein 50 μM added 30 minutes prior to peptide or insulin", "description": "Cells were serum starved overnight, and treated with myristoylated peptides and insulin as in FIG. 5A. Genistein (50 μM) was added to cells 30 minutes prior to treatment with peptide or insulin. Akt1 was immunoprecipitated from the lysates and kinase activity was measured using Crosstide as substrate.\nThus, Akt kinase activity was measured in cells loaded with either P2 or the scrambled P2 peptide, P2sc. Cell lysates were immunoprecipitated with anti-Akt antibody and immunoprecipitates were examined for phosphorylation of crosstide, an Akt specific substrate."}, "[3]": {"target": "T2, IRK (insulin receptor β-subunit) (Homo sapiens, UniProt P06213)", "T2 construct": "Insulin receptor β-subunit (IRK); purchased Enzo Life Sciences (Farmingdale, N.Y.)", "test": "IRK kinase activity in vitro towards IRS peptide substrate", "type": "biochemical", "conditions": "20 μM peptide", "experimental": "(§1) FIG. 4A depicts P2 stimulate IRK autophosphorylation in vitro. IRK was incubated in vitro with 20 μM of peptide P2 (KYCCSRK (SEQ ID NO: 2)), peptide a (KKRILHC (SEQ ID NO: 5)) or peptide b (KRNRYLSF (SEQ ID NO: 6)) and [^32P]-ATP. The [^32P] incorporation was quantified. FIG. 4B depicts P2 stimulate IRK kinase activity in vitro; identification of IRK inhibitory peptide. A similar assay was performed as in FIG. 4A, except that the IRK peptide substrate was included. FIG. 4C depicts P2 is both a substrate and activator of IRK kinase activity in vitro. Assays using sequence variant (P2Y-F; KFCCSRK (SEQ ID NO: 9)) of P2 were performed as in FIG. 4B. FIG. 4D depicts P2 stimulates IRK kinase activity in the cell; peptide “a” is an inhibitor. […] The activity as measured in four livers of P2 injected and four control mice is shown.\n(§2) Purified IRK was assayed as previously (Lerner-Marmarosh et al., 2005, PNAS 102:7109-14), using 300 μM IRS-1 Y608 peptide substrate. IRK autophosphorylation was determined as described earlier (Gibbs et al., 2012, J Biol Chem 287:1066-79). hBVR-based peptides (20 μM) were added as activators or inhibitors. […] Incorporation of ^32P was determined by liquid scintillation counting. […] Immunoprecipitates bound to protein A/G-agarose were washed in lysis buffer, followed by IRK assay buffer, and kinase activity was measured as before (Lerner-Marmarosh et al., 2005, PNAS 102:7109-14). […]"}, "[4]": {"system": "human skeletal muscle (HSKM) cells", "test": "3H-deoxyglucose uptake in human skeletal muscle cells", "type": "cell-based", "conditions": "2 hours treatment, 20 μM peptide (insulin added with 3H-deoxyglucose)", "experimental": "Insulin, when used, was added at the same time as 3H-deoxyglucose. * P<0.05, ** P<0.01. […] HSKM cells were starved overnight as in described in FIG. 2A. […] Glucose uptake was measured as in A. […] Treatment with peptide nanoparticles was for 1 h. Glucose uptake was measured as described in FIG. 2A. Cultures of HEK293 were maintained in DMEM with 10% FBS. Cells were starved overnight in medium with 0.1% FBS. When used, insulin was added to serum-starved cultures at 100 nM. Human skeletal muscle cells were maintained in 1:1 DMEM:F12 medium containing 15% FBS. […] Cells were washed 3 times with cold PBS and solubilized in 150 μl 50 mM NaOH. Radioactivity was measured and normalized to protein concentration. Assessments were made in triplicate and experiments were repeated three times."}, "[5]": {"system": "HepG2 cells", "test": "3H-deoxyglucose uptake in HepG2 cells", "type": "cell-based", "conditions": "starved overnight, 1 h treatment", "experimental": "FIG. 2A depicts Nanoparticle delivery of peptide P2 to human skeletal muscle (HSKM) cells stimulates glucose uptake. HSKM cells were grown in low glucose, low FBS medium overnight, then media was replaced with PBS containing 1% BSA for 1 h. Cells were pretreated for 2 hours with 20 μM myristoylated P2 or with 10 or 20 μM P2-nanoparticles, followed by measuring 3H-deoxyglucose uptake over a 15 minutes interval. Insulin, when used, was added at the same time as 3H-deoxyglucose. * P<0.05, ** P<0.01. FIG. 2B depicts a time course of glucose uptake stimulation by P2. HSKM cells were starved overnight as in described in FIG. 2A. Medium was changed to glucose-free DMEM with 1% BSA for 1 hour prior to treatment with 20 μM myr-P2 or with P2-nanoparticles for the indicated times. Glucose uptake was measured as in A. FIG. 2C depicts P2-nanoparticles affect glucose uptake in HepG2 cells. HepG2 cells were starved in low glucose DMEM with 0.1% FBS overnight. Treatment with peptide nanoparticles was for 1 h. Glucose uptake was measured as described in FIG. 2A.\nGlucose uptake was assessed using 2-deoxy 1-[^3H] glucose as described previously (Lerner-Marmarosh et al., 2005, PNAS 102:7109-14), with modification. […] Radioactivity was measured and normalized to protein concentration. […]"}, "[6]": {"system": "GSK3α", "test": "GSK3α phosphorylation in HEK cells (Western blot)", "type": "cell-based", "conditions": "40 μM myristoylated peptide 15 minutes or insulin 100 nM", "experimental": "(§3) FIG. 6A depicts Phosphorylation of GSK3α in P2-stimulated cells. Lysates of cells treated as in FIG. 5A were analyzed by Western blot; the blot was probed sequentially with antibodies to phospho-GSK3α-S21 and GSK3α. The signals were quantified by densitometry. FIG. 6B depicts Phosphorylation of GSK3β in P2-stimulated cells. Identical samples to those in FIG. 6A were probed with anti-phospho-GSK3β-S9 antibody, followed by anti-GSK3β.\nHEK cells were incubated in low glucose DMEM with 0.1% FBS, overnight. Cells were treated with 40 μM myristoylated peptide for a total of 15 min; insulin or IGF-1, if used, were included for the final 10 minutes. Cells were harvested, lysed in buffer with triton ×100, and whole cell lysates were analyzed for phosphorylated Akt (T^308, S^473) or GSK3 (α-S^21, β-S^9) species by Western blotting. Each blot was stripped and probed with anti-Akt1 or anti GSK3α or GSK3β antibody, as appropriate, to control for loading."}, "[7]": {"system": "GSK3β", "test": "GSK3β phosphorylation in HEK cells (Western blot)", "type": "cell-based", "conditions": "40 μM myristoylated peptide 15 minutes or insulin 100 nM", "experimental": "as §3, with “anti-GSK3β. […] Cells were harvested, lysed in buffer with triton ×100, and whole cell lysates were analyzed for phosphorylated Akt (T^308, S^473) or GSK3 (α-S^21, β-S^9) species by Western blotting. Each blot was stripped and probed with anti-Akt1 or anti GSK3α or GSK3β antibody, as appropriate, to control for loading.” for “anti-GSK3β.”"}, "[8]": {"target": "T2, IRK (insulin receptor β-subunit)", "test": "IRK autophosphorylation in vitro ([32P]-ATP)", "type": "biochemical", "conditions": "20 μM peptide", "experimental": "as §1, §2"}, "[9]": {"target": "T1, IRK", "test": "IRK kinase activity immunoprecipitated from peptide-treated HEK cells", "type": "cell-based", "set-up": "IRK was immunoprecipitated from cell lysates and assayed using the IRS peptide as substrate; endogenous in cells; host or cells: HEK293", "conditions": "40 μM myristoylated peptide, 15 minutes", "experimental": "as §1, §2"}}, "note": "Residues, ends and D or L forms follow the SMILES beside them. No end group written: not given here. *: point of attachment. Myristoyl = CCCCCCCCCCCCCC(=O)*"}
{"compound": "CCCCCCCCCCCCCC(=O)N[C@@H](CCCCN)C(=O)N[C@@H](Cc1ccc(O)cc1)C(=O)N[C@@H](CS)C(=O)N[C@@H](CS)C(=O)N[C@@H](CO)C(=O)N[C@@H](CCCNC(=N)N)C(=O)N[C@@H](CCCCN)C(=O)O", "note": "[P2, myr-KYCCSRK (SEQ ID NO: 2)] (Myristoyl-KYCCSRK-OH; N-terminus and C-terminus assumed)", "values": [{"measurement": "Km of the kinase", "setting": "[1]", "value": "without changing Km"}]}
{"compound": "O=c1c(-c2ccc(O)cc2)coc2cc(O)cc(O)c12", "note": "[genistein]", "values": [{"measurement": "Akt activation by either insulin or P2", "setting": "[2]", "value": "prevented Akt activation"}]}
{"compound": "KFCCSRK (SEQ ID NO: 9) [P2Y-F]", "values": [{"measurement": "effect on IRK kinase activity / substrate phosphorylation", "setting": "[3]", "value": "significant decrease in substrate phosphorylation"}]}
{"compound": "insulin", "values": [{"measurement": "glucose uptake", "setting": "[4]", "value": "stimulated glucose uptake to about the same extent"}, {"measurement": "glucose uptake", "setting": "[5]", "value": "more robust response"}, {"measurement": "phosphorylation of GSK3α at S21", "setting": "[6]", "value": "enhanced phosphorylation"}, {"measurement": "phosphorylation of GSK3β at S9", "setting": "[7]", "value": "enhanced phosphorylation"}]}
{"compound": "myr-KKRILHC (SEQ ID NO: 5) (Myristoyl-KKRILHC) [peptide (a), BVR based peptide]", "values": [{"measurement": "IRK autophosphorylation ([32P] incorporation)", "setting": "[8]", "value": "did not lead to increased [^32P] incorporation"}, {"measurement": "effect on IRK kinase activity in the cell", "setting": "[9]", "value": "potent inhibitor of the kinase"}]}
{"compound": "myr-KRNRYLSF (SEQ ID NO: 6) (Myristoyl-KRNRYLSF) [peptide (b), BVR based peptide]", "values": [{"measurement": "IRK autophosphorylation ([32P] incorporation)", "setting": "[8]", "value": "did not lead to increased [^32P] incorporation"}]}
